Patent US5455351A, “Retroviral protease inhibiting piperazine compounds” (Abbott Laboratories, priority 1993, dated 1995)

Key:
HIV-1 protease = target: T1, HIV-1 protease (HIV-1 M:B_HXB2R, UniProt P04585); experiment: Fluorogenic Assay for Screening Inhibitors of HIV Protease; assay type: biochemical; conditions: inhibitor concentration 0.5 nanomolar; pH 4.5; 30° C.; 1.3 μM fluorogenic substrate; read-out: Percent Inhibition
T1 construct: fluorogenic DABCYL/EDANS peptide substrate
Procedure: The inhibitory potency of the compounds of the invention can be determined by the following method.
A compound of the invention is dissolved in DMSO and a small aliquot further diluted with DMSO to 100 times the final concentration desired for testing. The reaction is carried out in a 6×50 mm tube in a total volume of 300 microliters. The final concentrations of the components in the reaction buffer are: 125 mM sodium acetate, 1 M sodium chloride, 5 mM dithiothreitol, 0.5 mg/ml bovine serum albumin, 1.3 μM fluorogenic substrate, 2% (v/v) dimethylsulfoxide, pH 4.5. After addition of inhibitor, the reaction mixture is placed in the fluorometer cell holder and incubated at 30° C. for several minutes. The reaction is initiated by the addition of a small aliquot of cold HIV protease. The fluorescence intensity (excitation 340 nm, emmision 490 nM) is recorded as a function of time. The reaction rate is determined for the first six to eight minutes. The observed rate is directly proportional to the moles of substrate cleaved per unit time. The percent inhibition is 100 X (1 -(rate in presence of inhibitor)/(rate in absence of inhibitor)).
Fluorogenic substrate: DabcyI-Ser-GIn-Asn-Tyr-Pro-Ile-VaI-GIn-EDANS wherein DABCYL=4-(4-dimethylamino-phenyl)azobenzoic acid and EDANS=5-((2-aminoethyl)amino)-naphthalene-1-sulfonic acid.

[1] = Viability (LC50) of MT4 cells; assay type: cell-based; conditions: human, read-out: LC50 (concentration of compound at which 50% of the cells remain viable)
Excerpt: (§1) The anti-HIV activity of the compounds of the invention can be determined in MT4 cells according to the procedure of Kempf, et. al. (Antimicrob. Agents Chemother. 1991, 35, 2209). The IC50 is the concentration of compound that gives 50% inhibition of the cytopathic effect of HIV. The LC50 is the concentration of compound at which 50% of the cells remain viable.

HIV-13B = experiment: Antiviral activity: inhibition of the cytopathic effect of HIV in MT4 cells; assay type: cell-based; conditions: Human immunodeficiency virus 1; HIV-13B in MT4 cells; read-out: IC50 (concentration of compound that gives 50% inhibition of the cytopathic effect of HIV)
Excerpt: as §1

In the case of CC(C)(C)NC(=O)[C@@H]1CN(Cc2cncs2)CCN1C[C@@H](O)C[C@@H](Cc1ccccc1)C(=O)N[C@H]1c2ccccc2C[C@H]1O [Example 1R, (1S,2R,2'R,4'S,2"S)-1-((2-Benzyl-5-(((2-(t-butyl)amino)carbonyl)-4-((thiazol-5-yl)methyl)piperazin-1-yl)-4-hydroxypentanoyl)amino)indan-2-ol], the inhibition at 0.0005 µM (HIV-1 protease) is reported as 61%, the CC50 [1] is reported as greater than 100000 nM and the IC50 (HIV-13B) is reported as 16 nM.
